The test system of one test is B. subtilis 168. As to the kind of experiment: Antimicrobial susceptibility assay (broth microdilution MIC). Type of test: cell-based. The text has this: (§1) The bacterial strains S. aureus ATCC 29213, S. aureus ATCC 29247, S. aureus ATCC BAA-41, E. faecium ATCC 49624, E. faecium ATCC 700221, E. faecalis ATCC 29212, S. epidermidis ATCC 12228, E. coli ATCC 25922, and K. pneumoniae ATCC BAA-1144 used in the antimicrobial susceptibility assays were purchased from American Type Culture Collection (ATCC, USA). B. subtilis strain 168 was already available in our in-house collection. E. coli JM109 WM647 was kindly provided by Dr. W. Margolin (University of Texas-Houston Medical School). FM 4–64 was purchased from Invitrogen (Eugene, Oregon). All other chemicals and reagents were purchased from Sigma-Aldrich. Stock solutions were prepared in DMSO. The final percentage of DMSO in the assays was 1% (v/v) for all experiments.
(§2) Antimicrobial susceptibility tests were conducted in 96-well microplates using the broth microdilution procedure described in the Clinical and Laboratory Standards Institute (CLSI) guidelines. Cation-adjusted Mueller Hinton broth for S. aureus strain ATCC 29213, methicillin-resistant S. aureus strain ATCC BAA-41 and ampicillin-resistant S. aureus strain ATCC 29247, or brain heart infusion broth for antibiotic-susceptible E. faecium strain ATCC 49624 and vancomycin-resistant E. faecium strain ATCC 700221, or Mueller Hinton broth for antibiotic-susceptible strains B. subtilis strain 168, E. faecalis strain ATCC 29212 and E. coli strain ATCC 25922 were used in the assays. After incubation for 18 h at 37°C, the absorbance at 600 nm (A600) was recorded using a microplate reader (Bio-Rad laboratory Ltd., UK) and the percentage of bacterial cell inhibition with respect to vehicles (1% DMSO) was calculated. The MIC was defined as the lowest compound concentration at which the growth of bacteria was inhibited by ≥90%. Three independent assays were performed for each test.
In general terms: In broth dilution the organism is exposed to a series of concentrations in liquid medium.

Another test relates to E. coli ATCC 25922. The description is as above. It counts as cell-based. To be noted: Escherichia coli.
Text: as §1, §2

In a further test the test system is E. faecalis ATCC 29212. Described as above. It counts as cell-based. To be noted: Enterococcus faecalis.
Text: as §1, §2

For test [1], the system named is K. pneumoniae ATCC BAA-1144. The test is described as above. It counts as cell-based. The conditions noted are these: Klebsiella pneumoniae.
Text: as §1, §2

For another test, the system named is S. aureus ATCC 29213. The test is described as above. It counts as cell-based. The conditions noted are these: Staphylococcus aureus.
Text: as §1, §2

A further test deals with S. aureus ATCC 29247. The description is as above. The conditions noted are these: Staphylococcus aureus. It counts as cell-based.
Text: as §1, §2

A further test has as its system S. aureus ATCC BAA-41. The test is described as above. It counts as cell-based. To be noted: Staphylococcus aureus.
Text: as §1, §2

Test [2] has as its system S. epidermidis ATCC 12228. Described as above. It counts as cell-based. The conditions noted are these: Staphylococcus epidermidis.
Text: as §1, §2

The target in another test is T1, S. aureus FtsZ (Staphylococcus aureus, UniProt P0A031).
T1 construct: made in house; host or cells: E. coli BL21(DE3)
T1 sequence (P0A031 1-390): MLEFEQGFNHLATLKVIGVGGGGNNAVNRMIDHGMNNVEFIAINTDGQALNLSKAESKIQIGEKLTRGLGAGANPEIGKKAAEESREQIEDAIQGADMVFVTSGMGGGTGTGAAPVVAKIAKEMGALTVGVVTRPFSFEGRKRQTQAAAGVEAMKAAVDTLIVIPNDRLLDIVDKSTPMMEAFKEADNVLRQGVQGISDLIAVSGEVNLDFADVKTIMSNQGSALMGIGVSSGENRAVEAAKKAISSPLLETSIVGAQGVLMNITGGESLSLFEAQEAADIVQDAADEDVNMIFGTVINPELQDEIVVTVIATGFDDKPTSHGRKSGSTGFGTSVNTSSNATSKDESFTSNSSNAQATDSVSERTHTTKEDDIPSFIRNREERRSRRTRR
As to the kind of experiment: Light scattering assay of FtsZ polymerization. Type of test: biochemical. To be noted: 1 mM compound; negative control. On the procedure:
E. coli BL21(DE3) cells were transformed with the pRSET-A-S vector carrying S. aureus FtsZ with a 6-histidine tag attached at its N-terminus under the control of a T7 promoter. […] When the OD600 reached 0.8, protein expression was induced with 0.4 mM isopropyl-β-D-thiogalactopyranoside (IPTG) for 4 h. Cells were harvested by centrifugation at 9000 rpm for 20 min at 4°C. The cell pellet was resuspended in 20 mL of solubilization buffer (50 mM Tris-HCl, 150 mM NaCl, 1 mM PMSF and 1 mM EDTA, pH 7.4) and then lysed with 1 mg/mL of lysozyme. The mixture was incubated for 1 h on ice. The cells were disrupted by sonication and the crude lysate obtained was centrifuged at 13,000 rpm for 1 h at 4°C. The supernatant containing 6-histidine tagged S. aureus FtsZ was collected and loaded onto a nickel charged HiTrap chelating column pre-equilibrated with starting buffer (20 mM sodium phosphate buffer, 0.5 M NaCl, pH 7.4). The column was then washed with 8 column volumes of the starting buffer to remove the unbound proteins, and the histidine-tagged enzyme was eluted by a linear gradient of 0−0.2 M imidazole. Fractions containing S. aureus FtsZ were pooled, buffer-exchanged with 20 mM NH4HCO3 (pH 8.0) at 4°C, lyophilized, and stored at −20°C. A stock solution of S. aureus FtsZ for the subsequent bioassay was prepared from the lyophilized powder.
The light scattering assay was performed using a protocol adapted from the literature. The polymerization and depolymerization of recombinant S. aureus FtsZ was measured using 90° light scattering in a thermostatically (37°C) controlled fluorescence spectrometer (Perkin Elmer, USA). Both excitation and emission wavelengths were set to 600 nm with a slit width of 2.5 nm. S. aureus FtsZ (6 µM) in 50 mM of MOPS buffer (pH 6.5) was incubated with vehicle (1% DMSO) or different concentrations of the test compound for 10 min at 25°C. 50 mM KCl and 10 mM MgCl2 were then added to establish a baseline. After 8 min, a final concentration of 1 mM GTP was added at the last fraction and the increase in light scattering was measured for an additional 2000s. The rate and extent of polymerization were measured. Appropriate blanks were subtracted from all experimental data. Moreover, in order to rule out unselective inhibition by formation of aggregates, control experiments with 0.01% (v/v) Triton X-100 from a freshly prepared 1% (v/v) stock solution were performed for berberine and compound 2 [40], [41]. Reported results are the average of three independent experiments.

Another test relates to E. faecium ATCC 49624. As to the kind of experiment: Antimicrobial susceptibility assay (broth microdilution MIC). Type of test: cell-based. The conditions noted are these: Enterococcus faecium.
Text: as §1
(§3) Antimicrobial susceptibility tests were conducted in 96-well microplates using the broth microdilution procedure described in the Clinical and Laboratory Standards Institute (CLSI) guidelines. […] After incubation for 18 h at 37°C, the absorbance at 600 nm (A600) was recorded using a microplate reader (Bio-Rad laboratory Ltd., UK) and the percentage of bacterial cell inhibition with respect to vehicles (1% DMSO) was calculated. The MIC was defined as the lowest compound concentration at which the growth of bacteria was inhibited by ≥90%. Three independent assays were performed for each test.

The test system of the next test is E. faecium ATCC 700221. Described as above. It counts as cell-based. To be noted: Enterococcus faecium.
Text: as §1, §3

[3] abbreviates: Bacillus subtilis, B. subtilis 168, Mueller Hinton broth, 18 h at 37°C, growth inhibited by ≥90%, read-out: MIC.
Setting [4] is: ATCC25922, E. coli ATCC 25922, Mueller Hinton broth, 18 h at 37°C, growth inhibited by ≥90%, read-out: MIC.
Where [5] appears, read: ATCC29212, E. faecalis ATCC 29212, Mueller Hinton broth, 18 h at 37°C, growth inhibited by ≥90%, read-out: MIC.
[6] abbreviates: ATCCBAA1144, K. pneumoniae ATCC BAA-1144 (Gram-negative, expressing AmpC β-lactamase), 18 h at 37°C, growth inhibited by ≥90%, read-out: MIC.
Where [7] appears, read: ATCC29213, S. aureus ATCC 29213, cation-adjusted Mueller Hinton broth, 18 h at 37°C, growth inhibited by ≥90%, read-out: MIC.
[8] abbreviates: ATCC29247, S. aureus ATCC 29247 (ampicillin-resistant), 18 h at 37°C, growth inhibited by ≥90%, read-out: MIC.
The mark [9] stands for this setting: ATCCBAA41, S. aureus ATCC BAA-41 (methicillin-resistant), 18 h at 37°C, growth inhibited by ≥90%, read-out: MIC.
The mark [10] stands for this setting: ATCC12228, S. epidermidis ATCC 12228, 18 h at 37°C, growth inhibited by ≥90%, read-out: MIC.

In brackets after ≈: the same amount, converted by molar mass. Like-named read-outs stand apart in the source and are kept apart here.

These results are taken from PMC4019636, “Rational Design of Berberine-Based FtsZ Inhibitors with Broad-Spectrum Antibacterial Activity” (PLoS ONE, 2014).

A word on the MIC: it is the lowest concentration found to suppress growth.

Turning to `CC1(C)S[C@@H]2[C@H](NC(=O)[C@H](N)c3ccccc3)C(=O)N2[C@H]1C(=O)O` [Ampicillin, reference compound], the MIC with B. subtilis 168 (setting [3]) was 0.1 µg/mL (≈ 0.286 µM); with E. coli ATCC 25922 (setting [4]) it was 6 µg/mL (≈ 17.2 µM); in the test with E. faecalis ATCC 29212 (setting [5]), 6 µg/mL (≈ 17.2 µM); in test [1] (setting [6]) it was > 96 µg/mL; in the test with S. aureus ATCC 29213 (setting [7]) it was 1.5 µg/mL (≈ 4.29 µM); in the test on S. aureus ATCC 29247 (setting [8]) it was 48 µg/mL (≈ 137 µM). Further, the MIC in the test on S. aureus ATCC BAA-41 (setting [9]) is > 96 µg/mL; in test [2] (setting [10]), 3 µg/mL (≈ 8.59 µM). For the same molecule, at S. aureus FtsZ, the “effect on the polymerization of S. aureus FtsZ” value is given as “no effect”.
With `COc1ccc2cc3[n+](cc2c1OCCCBr)CCc1cc2c(cc1-3)OCO2` [Compound 7], the MIC is > 196 µg/mL in the test with E. faecium ATCC 49624 (ATCC49624, E. faecium ATCC 49624, brain heart infusion broth, 18 h at 37°C, growth inhibited by ≥90%, read-out: MIC); > 196 µg/mL with E. faecium ATCC 700221 (ATCC700221, E. faecium ATCC 700221 (vancomycin-resistant), brain heart infusion broth, 18 h at 37°C, growth inhibited by ≥90%, read-out: MIC); 112 µg/mL with B. subtilis 168 (setting [3]); 384 µg/mL in the test with E. coli ATCC 25922 (setting [4]); > 196 µg/mL with E. faecalis ATCC 29212 (setting [5]); > 384 µg/mL in test [1] (setting [6]). The minimum inhibitory concentration (MIC) in the test on S. aureus ATCC 29213 (setting [7]) is 112 µg/mL; in the test with S. aureus ATCC 29247 (setting [8]), 112 µg/mL; in the test with S. aureus ATCC BAA-41 (setting [9]) it was 196 µg/mL; in [2] (setting [10]), 112 µg/mL.
In the case of `CN[C@H](CC(C)C)C(=O)N[C@H]1C(=O)N[C@@H](CC(N)=O)C(=O)N[C@H]2C(=O)N[C@H]3C(=O)N[C@H](C(=O)N[C@H](C(=O)O)c4cc(O)cc(O)c4-c4cc3ccc4O)[C@H](O)c3ccc(c(Cl)c3)Oc3cc2cc(c3O[C@@H]2O[C@H](CO)[C@@H](O)[C@H](O)[C@H]2O[C@H]2C[C@](C)(N)[C@H](O)[C@H](C)O2)Oc2ccc(cc2Cl)[C@H]1O` [Vancomycin, vancomycin, reference compound], the MIC was 1 µg/mL (≈ 0.69 µM) with E. faecium ATCC 49624 (ATCC49624, 18 h); > 96 µg/mL with E. faecium ATCC 700221 (ATCC700221, 18 h); 1 µg/mL (≈ 0.69 µM) in the test with B. subtilis 168 (Bacillus subtilis, 168, 18 h); 2 µg/mL (≈ 1.38 µM) against E. coli ATCC 25922 (ATCC25922, 18 h); 1 µg/mL (≈ 0.69 µM) in the test on E. faecalis ATCC 29212 (ATCC29212, 18 h); 6 µg/mL (≈ 4.14 µM) in test [1] (ATCCBAA1144, 18 h). For the same molecule, the MIC with S. aureus ATCC 29213 (ATCC29213, 18 h) stood at 1 µg/mL (≈ 0.69 µM); in the test with S. aureus ATCC 29247 (ATCC29247, 18 h), 1 µg/mL (≈ 0.69 µM); against S. aureus ATCC BAA-41 (ATCCBAA41, 18 h) it was 2 µg/mL (≈ 1.38 µM); in test [2] (ATCC12228, 18 h), 1 µg/mL (≈ 0.69 µM).
